This assay has as its target T1, human PTH1 receptor (Homo sapiens, UniProt Q03431).
T1 sequence (Q03431 27-593): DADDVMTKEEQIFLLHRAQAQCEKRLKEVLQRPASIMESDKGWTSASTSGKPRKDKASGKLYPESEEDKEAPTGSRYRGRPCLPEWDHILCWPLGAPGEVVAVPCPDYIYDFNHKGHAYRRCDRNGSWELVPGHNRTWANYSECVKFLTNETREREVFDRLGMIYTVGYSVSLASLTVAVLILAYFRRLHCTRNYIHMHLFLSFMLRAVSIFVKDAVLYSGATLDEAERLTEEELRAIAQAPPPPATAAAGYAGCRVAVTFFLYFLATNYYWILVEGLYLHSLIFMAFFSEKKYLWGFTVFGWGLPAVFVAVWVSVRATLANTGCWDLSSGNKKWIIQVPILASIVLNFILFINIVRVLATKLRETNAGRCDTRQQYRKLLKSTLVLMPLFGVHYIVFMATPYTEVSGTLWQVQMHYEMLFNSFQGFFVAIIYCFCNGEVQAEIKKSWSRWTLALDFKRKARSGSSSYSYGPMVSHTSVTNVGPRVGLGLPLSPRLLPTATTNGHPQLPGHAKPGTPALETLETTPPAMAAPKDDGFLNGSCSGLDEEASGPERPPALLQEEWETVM
The assay is described as follows: In vitro cAMP signal activity in HKRK-B7 cells (LLC-PK1 cells overexpressing the human PTH1 receptor). The format is cell-based. Particulars: HKRK-B7 cells; compound at 1×10^−3 M; cAMP produced as percentage of that produced by hPTH(1-34) at 100 nM.
With `O=C1NC(c2ccc(Cl)cc2Cl)=NC12CCN(S(=O)(=O)/C=C/c1cccc3c1ccn3C[C@H](O)CO)CC2` [Compound 249, 2-(2,4-dichloro-phenyl)-8-{(E)-2-[1-((S)-2,3-dihydroxy-propyl)-1H-indol-4-yl]-ethenesulfonyl}-1,3,8-triaza-spiro[4.5]dec-1-en-4-one], the “cAMP production activity (%)” value is given as 71%.

As for `O=C1NC(c2ccc(Cl)cc2)=NC12CCN(S(=O)(=O)/C=C/c1cccc3c1ccn3C[C@H](O)CO)CC2` [Compound 250, 2-(4-chloro-phenyl)-8-{(E)-2-[1-((S)-2,3-dihydroxy-propyl)-1H-indol-4-yl]-ethenesulfonyl}-1,3,8-triaza-spiro[4.5]dec-1-en-4-one], the “cAMP production activity (%)” value was found to be 62%. Consider `O=C1NC(C2CCCCC2)=NC12CCN(S(=O)(=O)CC/C=C/c1cccc3[nH]ccc13)CC2` [Compound 251, 2-Cyclohexyl-8-[(E)-4-(1H-indol-4-yl)-but-3-ene-1-sulfonyl]-1,3,8-triaza-spiro[4.5]dec-1-en-4-one], for which the “cAMP production activity (%)” value turned out to be 28%. `O=C1NC(C2CCCCC2)=NC12CCN(S(=O)(=O)CCC/C=C/c1cccc3[nH]ccc13)CC2` [Compound 252, 2-Cyclohexyl-8-[(E)-5-(1H-indol-4-yl)-pent-4-ene-1-sulfonyl]-1,3,8-triaza-spiro[4.5]dec-1-en-4-one]: the “cAMP production activity (%)” value is listed as 28%. With `O=C1NC(C2CCCCC2)=NC12CCN(S(=O)(=O)C/C=C/c1cccc3c1ccn3C[C@H](O)CO)CC2` [Compound 253, 2-Cyclohexyl-8-{(E)-3-[1-((S)-2,3-dihydroxy-propyl)-1H-indol-4-yl]-prop-2-ene-1-sulfonyl}-1,3,8-triaza-spiro[4.5]dec-1-en-4-one], the “cAMP production activity (%)” value is 54%. With `Cc1c(/C=C/S(=O)(=O)N2CCC3(CC2)N=C(c2cccc(OC(F)(F)F)c2)NC3=O)cccc1OCCC(O)CO` (centres unmarked) [Compound 254, 8-{(E)-2-[3-(3,4-Dihydroxy-butoxy)-2-methyl-phenyl]-ethenesulfonyl}-2-(3-trifluoromethoxy-phenyl)-1,3,8-triaza-spiro[4.5]dec-1-en-4-one] the figure was 97%. Turning to `Cc1ccc(OCCC(O)CO)cc1/C=C/S(=O)(=O)N1CCC2(CC1)N=C(c1cccc(OC(F)(F)F)c1)NC2=O` (centres unmarked) [Compound 255, 8-{(E)-2-[5-(3,4-dihydroxy-butoxy)-2-methyl-phenyl]-ethenesulfonyl}-2-(3-trifluoromethoxy-phenyl)-1,3,8-triaza-spiro[4.5]dec-1-en-4-one], the “cAMP production activity (%)” value is listed as 64%. `Cc1c(/C=C/S(=O)(=O)N2CCC3(CC2)N=C(c2cccc(OC(F)(F)F)c2)NC3=O)cccc1OCCO` [Compound 256, 8-{(E)-2-[3-(2-Hydroxy-ethoxy)-2-methyl-phenyl]-ethenesulfonyl}-2-(3-trifluoromethoxy-phenyl)-1,3,8-triaza-spiro[4.5]dec-1-en-4-one]: the “cAMP production activity (%)” value amounted to 67%.

Consider `CC(=O)N(CCO)c1ccc(C)c(/C=C/S(=O)(=O)N2CCC3(CC2)N=C(c2cccc(OC(F)(F)F)c2)NC3=O)c1` [Compound 257, N-(2-hydroxy-ethyl)-N-(4-methyl-3-{(E)-2-[4-oxo-2-(3-trifluoromethoxy-phenyl)-1,3,8-triaza-spiro[4.5]dec-1-ene-8-sulfonyl]-vinyl}-phenyl)-acetamide], for which the “cAMP production activity (%)” value came out at 42%. In the case of `Cc1cc(N2C(=O)CC[C@@H]2CO)cc(C)c1/C=C/S(=O)(=O)N1CCC2(CC1)N=C(c1cccc(OC(F)(F)F)c1)NC2=O` [Compound 258, 8-{(E)-2-[4-((R)-2-hydroxymethyl-5-oxo-pyrrolidin-1-yl)-2,6-dimethyl-phenyl]-ethenesulfonyl}-2-(3-trifluoromethoxy-phenyl)-1,3,8-triaza-spiro[4.5]dec-1-en-4-one], the “cAMP production activity (%)” value is listed as 87%.

For the molecule `CC(=O)N(CCO)c1ccc(/C=C/S(=O)(=O)N2CCC3(CC2)N=C(c2cccc(C(F)(F)F)c2F)NC3=O)c(C)c1` [Compound 259, N-(4-{(E)-2-[2-(2-Fluoro-3-trifluoromethyl-phenyl)-4-oxo-1,3,8-triaza-spiro[4.5]dec-1-ene-8-sulfonyl]-vinyl}-3-methyl-phenyl)-N-(2-hydroxy-ethyl)-acetamide], the “cAMP production activity (%)” value is reported as 67%. With `O=C1NC(C2CCCCC2)=NC12CCN(S(=O)(=O)CCc1cccc3[nH]c(=O)oc13)CC2` [Compound 261, 2-Cyclohexyl-8-[2-(2-oxo-2,3-dihydro-benzoxazol-7-yl)-ethanesulfonyl]-1,3,8-triaza-spiro[4.5]dec-1-en-4-one] the figure was 70%; with `O=C1NC(C2CCCCC2)=NC12CCN(S(=O)(=O)CCCCCc1cccc3[nH]ccc13)CC2` [Compound 262, 2-cyclohexyl-8-[5-(1H-indol-4-yl)-pentane-1-sulfonyl]-1,3,8-triaza-spiro[4.5]dec-1-en-4-one], 26%; with `O=C1NC(C2CCCCC2)=NC12CCN(S(=O)(=O)CCCCc1cccc3[nH]ccc13)CC2` [Compound 263, 2-cyclohexyl-8-[4-(1H-indol-4-yl)-butane-1-sulfonyl]-1,3,8-triaza-spiro[4.5]dec-1-en-4-one], 41%. Regarding `CC(=O)N(C)c1cccc(CCS(=O)(=O)N2CCC3(CC2)N=C(c2cccc(OC(F)(F)F)c2)NC3=O)c1C` [Compound 264, N-methyl-N-(2-methyl-3-{2-[4-oxo-2-(3-trifluoromethoxy-phenyl)-1,3,8-triaza-spiro[4.5]dec-1-ene-8-sulfonyl]-ethyl}-phenyl)-acetamide], the “cAMP production activity (%)” value is 69%.

On to `CC(=O)N(C)c1ccc(C)c(CCS(=O)(=O)N2CCC3(CC2)N=C(c2cccc(OC(F)(F)F)c2)NC3=O)c1` [Compound 265, N-methyl-N-(4-methyl-3-{2-[4-oxo-2-(3-trifluoromethoxy-phenyl)-1,3,8-triaza-spiro[4.5]dec-1-ene-8-sulfonyl]-ethyl}-phenyl)-acetamide], for which the “cAMP production activity (%)” value was 55%. For the molecule `Cc1c(CCS(=O)(=O)N2CCC3(CC2)N=C(c2cccc(OC(F)(F)F)c2)NC3=O)cccc1OCCC(O)CO` (centres unmarked) [Compound 266, 8-{2-[3-(3,4-dihydroxy-butoxy)-2-methyl-phenyl]-ethanesulfonyl}-2-(3-trifluoromethoxy-phenyl)-1,3,8-triaza-spiro[4.5]dec-1-en-4-one], the “cAMP production activity (%)” value was 81%.

`Cc1ccc(OCCC(O)CO)cc1CCS(=O)(=O)N1CCC2(CC1)N=C(c1cccc(OC(F)(F)F)c1)NC2=O` (centres unmarked) [Compound 267, 8-{2-[5-(3,4-dihydroxy-butoxy)-2-methyl-phenyl]-ethanesulfonyl}-2-(3-trifluoromethoxy-phenyl)-1,3,8-triaza-spiro[4.5]dec-1-en-4-one]: the “cAMP production activity (%)” value was 42%. As to `Cc1cc(N2C(=O)CC[C@@H]2CO)ccc1CCS(=O)(=O)N1CCC2(CC1)N=C(c1cccc(C(F)(F)F)c1)NC2=O` [Compound 268, 8-{2-[4-((R)-2-Hydroxymethyl-5-oxo-pyrrolidin-1-yl)-2-methyl-phenyl]-ethanesulfonyl}-2-(3-trifluoromethyl-phenyl)-1,3,8-triaza-spiro[4.5]dec-1-en-4-one], the “cAMP production activity (%)” value is recorded as 99%. For `O=C1NC(C2CCCCC2)=NC12CCN(S(=O)(=O)CCc1ccc3[nH]ccc3c1)CC2` [Compound 269, 2-cyclohexyl-8-[2-(1H-indol-5-yl)-ethanesulfonyl]-1,3,8-triaza-spiro[4.5]dec-1-en-4-one], the “cAMP production activity (%)” value worked out at 43%.

The record behind these values is patent publication US9169254B2, “Spiroimidazolone derivative” (Chugai Seiyaku Kabushiki Kaisha, priority 2009, dated 2015).
